≈ marks a conversion by molar mass, not a printed value.
What was measured:
Format in all cases: cell-based
[1] = test system: Staphylococcus aureus FDA 209PJc-1; test: Antibacterial activity, agar-dilution MIC, organism No. 1; settings: Staphylococcus aureus, FDA209PJC1; Organism No. 1, bouillon-agar; read-out: Minimum Inhibitory Concentration
From the text: (§1) Agar-dilution method was used for determination of the antibacterial activity and antifungal activity while using bouillon-agar culture medium, and the minimum inhibitory concentration of the specimen was expressed by μg/ml of the culture medium.

[2] = test system: Staphylococcus aureus Terajima; test: Antibacterial activity, agar-dilution MIC, organism No. 2; settings: Staphylococcus aureus; Organism No. 2, bouillon-agar; read-out: Minimum Inhibitory Concentration
From the text: as §1

[3] = test system: Staphylococcus aureus MS 353; test: Antibacterial activity, agar-dilution MIC, organism No. 3; settings: Staphylococcus aureus, MS353; Organism No. 3, bouillon-agar; read-out: Minimum Inhibitory Concentration
From the text: as §1

[4] = test system: Streptococcus pyogenes Cook; test: Antibacterial activity, agar-dilution MIC, organism No. 4; settings: Streptococcus pyogenes; Organism No. 4, bouillon-agar; read-out: Minimum Inhibitory Concentration
From the text: as §1

[5] = test system: Escherichia coli NIHJ-JC-2; test: Antibacterial activity, agar-dilution MIC, organism No. 5; settings: Escherichia coli, NIHJJC2; Organism No. 5, bouillon-agar; read-out: Minimum Inhibitory Concentration
From the text: as §1

[6] = test system: Escherichia coli K12 C600 IAM 1264; test: Antibacterial activity, agar-dilution MIC, organism No. 6; settings: Escherichia coli, IAM1264; Organism No. 6, bouillon-agar; read-out: Minimum Inhibitory Concentration
From the text: as §1

[7] = test system: Klebsiella pneumoniae PCI-602; test: Antibacterial activity, agar-dilution MIC, organism No. 7; settings: Klebsiella pneumoniae, PCI602; Organism No. 7, bouillon-agar; read-out: Minimum Inhibitory Concentration
From the text: as §1

[8] = test system: Salmonella typhimurium IID 971; test: Antibacterial activity, agar-dilution MIC, organism No. 8; settings: Salmonella enterica; Organism No. 8, bouillon-agar; read-out: Minimum Inhibitory Concentration
From the text: as §1

Salmonella typhi 901 = test: Antibacterial activity, agar-dilution MIC, organism No. 9; settings: Salmonella enterica, TYPHI, read-out: Minimum Inhibitory Concentration
From the text: as §1

[9] = test system: Salmonella paratyphi-A 1015; test: Antibacterial activity, agar-dilution MIC, organism No. 10; settings: Salmonella enterica, PARATYPHI, read-out: Minimum Inhibitory Concentration
From the text: as §1

[10] = test system: Salmonella shottmuelleri 8006; test: Antibacterial activity, agar-dilution MIC, organism No. 11; settings: Salmonella, 8006; Organism No. 11, bouillon-agar; read-out: Minimum Inhibitory Concentration
From the text: as §1

[11] = test system: Salmonella enteritidis G 14; test: Antibacterial activity, agar-dilution MIC, organism No. 12; settings: Salmonella enterica, ENTERITIDIS; Organism No. 12, bouillon-agar; read-out: Minimum Inhibitory Concentration
From the text: as §1

[12] = test system: Bacillus subtilis ATCC 6633; test: Antibacterial activity, agar-dilution MIC, organism No. 14; settings: Bacillus subtilis, ATCC6633; Organism No. 14, bouillon-agar; read-out: Minimum Inhibitory Concentration
From the text: as §1

[13] = test system: Pseudomonas aeruginosa IFO 3445; test: Antibacterial activity, agar-dilution MIC, organism No. 15; settings: Pseudomonas aeruginosa, IFO3445; Organism No. 15, bouillon-agar; read-out: Minimum Inhibitory Concentration
From the text: as §1

[14] = test system: Pseudomonas aeruginosa NCTC 10490; test: Antibacterial activity, agar-dilution MIC, organism No. 16; settings: Pseudomonas aeruginosa, NCTC10490; Organism No. 16, bouillon-agar; read-out: Minimum Inhibitory Concentration
From the text: as §1

[15] = test system: Pseudomonas aeruginosa PAO 1; test: Antibacterial activity, agar-dilution MIC, organism No. 17; settings: Pseudomonas aeruginosa, PAO1; Organism No. 17, bouillon-agar; read-out: Minimum Inhibitory Concentration
From the text: as §1

[16] = test system: Proteus morganii IFO 3848; test: Antibacterial activity, agar-dilution MIC, organism No. 18; settings: Morganella morganii, IFO3848; Organism No. 18, bouillon-agar; read-out: Minimum Inhibitory Concentration
From the text: as §1

[17] = test system: Proteus mirabilis IFO 3849; test: Antibacterial activity, agar-dilution MIC, organism No. 19; settings: Proteus mirabilis, IFO3849; Organism No. 19, bouillon-agar; read-out: Minimum Inhibitory Concentration
From the text: as §1

Proteus vulgaris OX-19 = test: Antibacterial activity, agar-dilution MIC, organism No. 20; settings: Proteus vulgaris, OX19; Organism No. 20, bouillon-agar; read-out: Minimum Inhibitory Concentration
From the text: as §1

Proteus vulgaris HX-19 = test: Antibacterial activity, agar-dilution MIC, organism No. 21; settings: Proteus vulgaris, HX19; Organism No. 21, bouillon-agar; read-out: Minimum Inhibitory Concentration
From the text: as §1

[18] = test system: Proteus rettgeri IFO 3850; test: Antibacterial activity, agar-dilution MIC, organism No. 22; settings: Providencia rettgeri, IFO3850; Organism No. 22, bouillon-agar; read-out: Minimum Inhibitory Concentration
From the text: as §1

[19] = test system: Enterobacter aerogenes ATCC 13048; test: Antibacterial activity, agar-dilution MIC, organism No. 23; settings: Klebsiella aerogenes, ATCC13048; Organism No. 23, bouillon-agar; read-out: Minimum Inhibitory Concentration
From the text: as §1

Enterobacter cloacae 963 = test: Antibacterial activity, agar-dilution MIC, organism No. 24; settings: Enterobacter cloacae, 963; Organism No. 24, bouillon-agar; read-out: Minimum Inhibitory Concentration
From the text: as §1

[20] = test system: Micrococcus luteus ATCC 9341; test: Antibacterial activity, agar-dilution MIC, organism No. 25; settings: Micrococcus luteus, ATCC9341; Organism No. 25, bouillon-agar; read-out: Minimum Inhibitory Concentration
From the text: as §1

[21] = test system: Streptococcus pyogenes IFO 3340; test: Antibacterial activity, agar-dilution MIC, organism No. 26; settings: Streptococcus pyogenes, IFO3340; Organism No. 26, bouillon-agar; read-out: Minimum Inhibitory Concentration
From the text: as §1

[22] = test system: Streptococcus faecium IFO 3826; test: Antibacterial activity, agar-dilution MIC, organism No. 27; settings: Enterococcus faecium, IFO3826; Organism No. 27, bouillon-agar; read-out: Minimum Inhibitory Concentration
From the text: as §1

[23] = test system: Mycoplasma pneumoniae IID817; test: Antimycoplasmal activity, MIC by phenol red colour change, organism No. 28; settings: Mycoplasma, IID817; Organism No. 28, PPLO broth + 1% glucose, 37° C.; read-out: Minimum Inhibitory Concentration (MIC)
Protocol: Mycoplasma pneumoniae IID817 was used as the test microorganism in a culture medium prepared by adding 1% of glucose to "PPLO broth (manufactured by Difco Co.) liquid culture medium" at 37° C. with phenol red as an indicator, thereby culturing the test microorganism.

[24] = test system: Candida albicans IAM 4905; test: Antifungal activity, agar-dilution MIC, organism No. 29; settings: Candida albicans, IAM4905; Organism No. 29, bouillon-agar; read-out: Minimum Inhibitory Concentration
From the text: as §1

[25] = test system: Aspergillus niger IFO 6342; test: Antifungal activity, agar-dilution MIC, organism No. 30; settings: Aspergillus niger, IFO6342; Organism No. 30, bouillon-agar; read-out: Minimum Inhibitory Concentration
From the text: as §1

| SMILES | MIC [1] [µg/mL] | MIC [2] [µg/mL] | MIC [3] [µg/mL] | MIC [4] [µg/mL] | MIC [5] [µg/mL] | MIC [6] [µg/mL] | MIC [7] [µg/mL] | MIC [8] [µg/mL] | MIC (Salmonella typhi 901) [µg/mL] | MIC [9] [µg/mL] | MIC [10] [µg/mL] | MIC [11] [µg/mL] | MIC [12] [µg/mL] | MIC [13] [µg/mL] | MIC [14] [µg/mL] | MIC [15] [µg/mL] | MIC [16] [µg/mL] | MIC [17] [µg/mL] | MIC (Proteus vulgaris OX-19) [µg/mL] | MIC (Proteus vulgaris HX-19) [µg/mL] | further results |
| --- | --- | --- | --- | --- | --- | --- | --- | --- | --- | --- | --- | --- | --- | --- | --- | --- | --- | --- | --- | --- | --- |
| [C-]#[N+]C12CC3(/C=C/C(=O)N[C@@H](Cc4ccccc4)C(=O)OCc4ccccc4)OC3C1O2 (stereo partly drawn) [compound 31] | > 200 | > 200 | > 200 | > 200 | > 200 | > 200 | > 200 | > 200 | > 200 | > 200 | > 200 | > 200 | > 200 | > 200 | > 200 | > 200 | > 200 | > 200 | > 200 | > 200 | MIC [18]: > 200 µg/mL; MIC [19]: > 200 µg/mL; MIC (Enterobacter cloacae 963): > 200 µg/mL; MIC [20]: 6.25 µg/mL (≈ 14.5 µM); MIC [21]: > 200 µg/mL; MIC [22]: > 200 µg/mL; MIC [23]: > 100 µg/mL; MIC [24]: > 100 µg/mL; MIC [25]: > 100 µg/mL |
| [C-]#[N+]C12CC3(/C=C/C(=O)Nc4ccc(C)cc4)OC3C1O2 (stereo not drawn) [compound 37] | 0.39 (≈ 1.38 µM) | 1.56 (≈ 5.53 µM) | 0.39 (≈ 1.38 µM) | 12.5 (≈ 44.3 µM) | 25 (≈ 88.6 µM) | 25 (≈ 88.6 µM) | 0.1 (≈ 0.354 µM) | 6.25 (≈ 22.1 µM) | 1.56 (≈ 5.53 µM) | 0.2 (≈ 0.708 µM) | 0.2 (≈ 0.708 µM) | 1.56 (≈ 5.53 µM) | 6.25 (≈ 22.1 µM) | > 200 | > 200 | > 200 | 12.5 (≈ 44.3 µM) | 200 (≈ 708 µM) | 0.2 (≈ 0.708 µM) | < 0.05 | MIC [18]: 3.13 µg/mL (≈ 11.1 µM); MIC [19]: 100 µg/mL (≈ 354 µM); MIC (Enterobacter cloacae 963): 50 µg/mL (≈ 177 µM); MIC [20]: < 0.05 µg/mL; MIC [21]: 1.56 µg/mL (≈ 5.53 µM); MIC [22]: 25 µg/mL (≈ 88.6 µM); MIC [23]: 0.2 µg/mL; MIC [24]: 0.39 µg/mL (≈ 1.38 µM); MIC [25]: 1.56 µg/mL (≈ 5.53 µM) |
| [C-]#[N+]C12CC3(/C=C/C(=O)Nc4cccc(C)c4)OC3C1O2 (stereo not drawn) [compound 38] | < 0.05 | 0.1 (≈ 0.354 µM) | < 0.05 | 6.25 (≈ 22.1 µM) | 12.5 (≈ 44.3 µM) | 12.5 (≈ 44.3 µM) | < 0.05 | 6.25 (≈ 22.1 µM) | 1.56 (≈ 5.53 µM) | < 0.05 | < 0.05 | 1.56 (≈ 5.53 µM) | 3.13 (≈ 11.1 µM) | > 200 | > 200 | > 200 | 12.5 (≈ 44.3 µM) | > 200 | 0.05 (≈ 0.177 µM) | 0.05 (≈ 0.177 µM) | MIC [18]: 3.13 µg/mL (≈ 11.1 µM); MIC [19]: > 200 µg/mL; MIC (Enterobacter cloacae 963): > 200 µg/mL; MIC [20]: < 0.05 µg/mL; MIC [21]: 0.39 µg/mL (≈ 1.38 µM); MIC [22]: 12.5 µg/mL (≈ 44.3 µM); MIC [23]: < 0.2 µg/mL; MIC [24]: 0.78 µg/mL (≈ 2.76 µM); MIC [25]: 1.56 µg/mL (≈ 5.53 µM) |

Source: patent publication US4684664A, “Derivatives of β-(4-isocyano-1,2,3,4-diepoxycyclopentyl) acrylic acid” (Kureha Kagaku Kogyo Kabushiki Kaisha, priority 1984, dated 1987)
